Data published in ChEMBL document CHEMBL1150540, “Aromatic P1 replacements for the highly potent HIV-1 protease inhibitor CRIXIVAN” (Bioorg Med Chem Lett, 1996).

target: Human immunodeficiency virus type 1 protease (Human immunodeficiency virus 1) (UniProt Q72874); assay: In vitro inhibition of HIV-1 protease, activity expressed as CIC95 in whole cell assay.

| Compound | IC95 [nM] |
| --- | --- |
| CC(C)(C)NC(=O)c1ccccc1C[C@@H](O)C[C@@H](Cc1ccccc1)C(=O)N[C@H]1c2ccccc2C[C@H]1O | 800 |
| Cc1ccc(C[C@@H](O)C[C@@H](Cc2ccccc2)C(=O)N[C@H]2c3ccccc3C[C@H]2O)c(C(=O)NC(C)(C)C)c1 | 400 |
| CC(C)(C)NC(=O)[C@@H]1CNCCN1C[C@@H](O)C[C@@H](Cc1ccccc1)C(=O)N[C@H]1c2ccccc2C[C@H]1O | 3000 |

target: Human immunodeficiency virus type 1 protease (Human immunodeficiency virus 1, UniProt Q72874); assay: Inhibition of HIV-1 protease.

| Compound | IC50 [nM] |
| --- | --- |
| COc1cc(Oc2ccccc2)ccc1C[C@@H](O)C[C@@H](Cc1ccccc1)C(=O)N[C@H]1c2ccccc2C[C@H]1O | 45 |
| COc1ccccc1C[C@@H](O)C[C@@H](Cc1ccccc1)C(=O)N[C@H]1c2ccccc2C[C@H]1O | 80 |
| CC(C)(C)NC(=O)[C@@H]1CCCCN1C[C@@H](O)C[C@@H](Cc1ccccc1)C(=O)N[C@H]1c2ccccc2C[C@H]1O | 80 |
| COCOc1ccccc1C[C@@H](O)C[C@@H](Cc1ccccc1)C(=O)N[C@H]1c2ccccc2C[C@H]1O | 276 |
| O=C(N[C@H]1c2ccccc2C[C@H]1O)[C@H](Cc1ccccc1)C[C@H](O)Cc1ccccc1O | 1600 |
| COc1ccc(C[C@@H](O)C[C@@H](Cc2ccccc2)C(=O)N[C@H]2c3ccccc3C[C@H]2O)c(OC)c1 | 105 |
| CC(C)(C)NC(=O)c1ccccc1C[C@@H](O)C[C@@H](Cc1ccccc1)C(=O)N[C@H]1c2ccccc2C[C@H]1O | 4.7 |
| O=C(N[C@H]1c2ccccc2C[C@H]1O)[C@H](Cc1ccccc1)C[C@H](O)Cc1ccccc1 | 1200 |
| Cc1ccc(C[C@@H](O)C[C@@H](Cc2ccccc2)C(=O)N[C@H]2c3ccccc3C[C@H]2O)c(C(=O)NC(C)(C)C)c1 | 1.7 |
| NS(=O)(=O)c1ccccc1C[C@@H](O)C[C@@H](Cc1ccccc1)C(=O)N[C@H]1c2ccccc2C[C@H]1O | 290 |
| CS(=O)(=O)c1ccccc1C[C@@H](O)C[C@@H](Cc1ccccc1)C(=O)N[C@H]1c2ccccc2C[C@H]1O | 314 |
| CSc1ccccc1C[C@@H](O)C[C@@H](Cc1ccccc1)C(=O)N[C@H]1c2ccccc2C[C@H]1O | 95 |
| CC(C)COc1ccccc1C[C@@H](O)C[C@@H](Cc1ccccc1)C(=O)N[C@H]1c2ccccc2C[C@H]1O | 97 |
| CC(C)(C)NS(=O)(=O)c1ccccc1C[C@@H](O)C[C@@H](Cc1ccccc1)C(=O)N[C@H]1c2ccccc2C[C@H]1O | 6 |
| CC(C)(C)NC(=O)[C@@H]1CNCCN1C[C@@H](O)C[C@@H](Cc1ccccc1)C(=O)N[C@H]1c2ccccc2C[C@H]1O | 38 |
